Among the data in patent US20050209278A1, “Piperidinyl- and piperazinyl-sulfonylmethyl hydroxamic acids and their use as protease inhibitors” (priority 2002, published 2005) are IC50 values, retold here.

For one test, the target named is T1, MMP-13 (Homo sapiens, UniProt P45452).
T1 construct: made in house; host or cells: baculovirus / insect cells
In words: In vitro MMP inhibition, IC50 determination (fluorogenic substrate I). It is filed as biochemical. Particulars: values in parenthesis; 4 μM substrate I; room temperature. The protocol:
Several hydroxamic acids and salts thereof were analyzed in in vitro assays to determine their ability to inhibit the MMP cleavage of peptide substrates. […] and IC50 constants were calculated from the assayed hydroxamic acid-MMP interactions.
Human recombinant MMP-1, MMP-2, MMP-9, MMP-13, and MMP-14 were used in this assay. All enzymes were prepared in Assignee's laboratories following usual laboratory procedures. Protocols for the preparation and use of these enzymes are available in the scientific literature. See, e.g., Enzyme Nomenclature (Academic Press, San Diego, Calif., 1992) (and the citations therein). See also, Freije et al., “Molecular cloning and expression of collagenase-3, a novel human matrix metalloproteinase produced by breast carcinomas,” J Biol. Chem., 269(24), 16766-16773 (1994).
The MMP-13 was obtained as a proenzyme from a full-length cDNA clone using baculovirus, as described by V. A. Luckow, “Insect Cell Expression Technology,” Protein Engineering: Principles and Practice, pp. 183-218 (edited by J. L. Cleland et al., Wiley-Liss, Inc., 1996). The expressed proenzyme was first purified over a heparin agarose column, and then over a chelating zinc chloride column. The proenzyme was then activated by APMA for use in the assay. Further details on baculovirus expression systems may be found in, for example, Luckow et al., J. Virol., 67, 4566-79 (1993). See also, O'Reilly et al, Baculovirus Expression Vectors: A Laboratory Manual (W.H. Freeman and Co., New York, N.Y., 1992). See also, King et al., The Baculovirus Expression System: A Laboratory Guide (Chapman & Hall, London, England, 1992).
All MMPs were activated using 4-aminophenylmercuric acetate (“APMA”, Sigma Chemical, St. Louis, Mo.) or trypsin. MMP-9 also was activated using human recombinant MMP-3 (purified in Assignee's laboratory following standard cloning and purification techniques).
Two fluorogenic, methoxycoumarin-containing polypeptide substrates were used in the MMP inhibition assays: [drawing 427] Here, “Dpa” is 3-(2,4-dinitrophenyl)-L-2,3-diaminopropionyl group, and “MCA” is 7-methoxycoumarin-4-yl acetyl. Substrate (I) was purchased from Baychem (Redwood City, Calif.), and substrate II was prepared Assignee's laboratory. Substrate I was used in the IC50 determination assays, while substrate II was used in the Ki determination assays. In the absence of MMP inhibitory activity, either substrate is cleaved at the Gly-Leu peptide bond. This cleavage separates the highly fluorogenic peptide from the 2,4-dinitrophenyl quencher, thus resulting in increase of fluorescent intensity.
The stock solutions of the assayed hydroxamic acids (or salts thereof) were prepared in 1% dimethyl sulfoxide (DMSO). These stock solutions were diluted in Buffer A (100 mM Tris-HCl, 100 mM NaCl, 10 mM CaCl2, 0.05% polyoxyethylene 23 lauryl ether, pH 7.5) to obtain solutions with different hydroxamic acid concentrations, i.e., assay solutions with different concentrations of the assayed MMP inhibitory compound. The experiment controls contained the same amount of Buffer A/DMSO as the assayed sample, but contained no hydroxamic acid (or salt thereof).
The assays from which the IC50 determinations were made were performed as follows. The MMPs were activated with either trypsin or APMA (4-aminophenylmercuric acetate, Sigma Chemical, St. Louis, Mo.). The assayed hydroxamic acid samples were incubated in Microfluor™ White Plates (Dynatech, Chantilly, Va.) and analyzed on a Perkin Elmer L550 plate reader (Norwalk, Conn.). The excitation wavelength was 328 nm, and the emission wavelength—415 nm. All samples (assayed hydroxamic acids and controls) were incubated in separate plates at room temperature in the presence of 4 μM of MMP substrate (I). As stated in the previous paragraph, samples containing varying concentrations of the same assayed hydroxamic acid were prepared. Inhibition was measured as a reduction in fluorescent intensity as a function of MMP inhibitor concentration. […]

The next test deals with T2, MMP-14 (Homo sapiens, UniProt P50281).
T2 construct: The catalytic domain enzyme was expressed in E. coli inclusion bodies, solubilized in urea; made in house
The description is as above. It is filed as biochemical. Particulars: values in parenthesis; 4 μM substrate I; room temperature. The protocol:
Several hydroxamic acids and salts thereof were analyzed in in vitro assays to determine their ability to inhibit the MMP cleavage of peptide substrates. […] and IC50 constants were calculated from the assayed hydroxamic acid-MMP interactions. Human recombinant MMP-1, MMP-2, MMP-9, MMP-13, and MMP-14 were used in this assay. All enzymes were prepared in Assignee's laboratories following usual laboratory procedures. Protocols for the preparation and use of these enzymes are available in the scientific literature. See, e.g., Enzyme Nomenclature (Academic Press, San Diego, Calif., 1992) (and the citations therein). See also, Freije et al., “Molecular cloning and expression of collagenase-3, a novel human matrix metalloproteinase produced by breast carcinomas,” J Biol. Chem., 269(24), 16766-16773 (1994). The MMP-14 full length cDNA was provided by Dr. Gregory Goldberg of Washington University (St. Louis, Mo.). The catalytic domain enzyme was expressed in E. coli inclusion bodies, solubilized in urea, purified on a preparative […] reverse phase HPLC column, and then refolded in the presence of zinc acetate and purified for use. All MMPs were activated using 4-aminophenylmercuric acetate (“APMA”, Sigma Chemical, St. Louis, Mo.) or trypsin. MMP-9 also was activated using human recombinant MMP-3 (purified in Assignee's laboratory following standard cloning and purification techniques). […] Substrate (I) was purchased from Baychem (Redwood City, Calif.), and substrate II was prepared Assignee's laboratory. Substrate I was used in the IC50 determination assays, while substrate II was used in the Ki determination assays. In the absence of MMP inhibitory activity, either substrate is cleaved at the Gly-Leu peptide bond. […] The stock solutions of the assayed hydroxamic acids (or salts thereof) were prepared in 1% dimethyl sulfoxide (DMSO). […] The experiment controls contained the same amount of Buffer A/DMSO as the assayed sample, but contained no hydroxamic acid (or salt thereof). The assays from which the IC50 determinations were made were performed as follows. […] Louis, Mo.). The assayed hydroxamic acid samples were incubated in MicrofluorTM White Plates (Dynatech, Chantilly, Va.) and analyzed on a Perkin Elmer […] plate reader (Norwalk, Conn.). The excitation wavelength was 328 nm, and the emission wavelength-415 nm. […] As stated in the previous paragraph, samples containing varying concentrations of the same assayed hydroxamic acid were prepared. Inhibition was measured as a reduction in fluorescent intensity as a function of MMP inhibitor concentration. […] All values in Table 2 are given in nM units. The IC50 measurements are in parenthesis.

Where a name gives a salt, the structure may show the parent alone.

On to `CCCCc1ccc(N2CCN(S(=O)(=O)C3(C(=O)NO)CCN(CCOC)CC3)CC2)cc1` [Example 5, 4-{[4-(4-butylphenyl)piperazin-1-yl]sulfonyl}-N-hydroxy-1-(2-methoxyethyl)piperidine-4-carboxamide Dihydrochloride], for which the IC50 was under 0.1 nM on MMP-13 and 4550 nM at MMP-14.
The like results for `CCCCCc1ccc(N2CCN(S(=O)(=O)C3(C(=O)NO)CCN(CCOC)CC3)CC2)cc1` [Example 6, N-Hydroxy-1-(2-methoxyethyl)-4-{[4-(4-pentylphenyl)piperazin-1-yl]sulfonyl}piperidine-4-carboxamide Dihydrochloride] were, in that order, 0.1 nM and over 10000 nM.
As to `O=C(NO)C1(S(=O)(=O)N2CCN(c3ccc(OCC4CC4)c(F)c3)CC2)CCN(C2CC2)CC1` [Example 10, 1-cyclopropyl-4-[[4-[4-(cyclopropylmethoxy)-3-fluorophenyl]-1-piperazinyl]sulfonyl]-N-hydroxy-4-piperidinecarboxamide, dihydrochloride], the IC50 at MMP-13 was 1.3 nM; on MMP-14 it was 5820 nM.
With `CCCCOc1ccc(N2CCN(S(=O)(=O)C3(C(=O)NO)CCN(CCOC)CC3)CC2)cc1F` [Example 11, 4-[[4-(4-butoxy-3-fluorophenyl)-1-piperazinyl]sulfonyl]-N-hydroxy-1-(2-methoxyethyl)-4-piperidinecarboxamide, Dihydrochloride], the IC50 on MMP-13 worked out at 0.8 nM; on MMP-14 it was 7120 nM.
For `CCCCCc1ccc(C2CCN(S(=O)(=O)C3(C(=O)NO)CCN(CCOC)CC3)CC2)cc1` [Example 15, N-hydroxy-1-(2-methoxyethyl)-4-{[4-(4-pentylpheyl)piperidin-1-yl]sulfonyl}piperidine-4-carboxamide Hydrochloride] the same measures were 0.1 nM and 6170 nM.

As usually defined, the IC50 is the midpoint of a concentration-inhibition curve.
